Results: patent US20200079765A1, “SUBSTITUTED HETEROARYL PYRROLONES AND SALTS THEREOF AND USE THEREOF AS HERBICIDAL ACTIVE SUBSTANCES” (Bayer CropScience Aktiengesellschaft, priority 2016, published 2020)

Key:
Type in all cases: in vivo
Amaranthus retroflexus [1] = experiment: Post-emergence herbicidal action (Experimental Part 1, A); conditions: about 3 weeks after treatment, 100% = plants have died, 0% = like control plants
Description: (§1) Seeds of monocotyledonous and dicotyledonous weeds and crop plants were placed in sandy loam in plastic or wood-fiber pots, covered with soil and cultivated in a greenhouse under controlled growth conditions. 2 to 3 weeks after sowing, the test plants were treated at the one-leaf stage. The compounds of the invention, formulated in the form of wettable powders (WP) or as emulsion concentrates (EC), were then sprayed onto the green parts of the plants as aqueous suspension or emulsion with addition of 0.5% additive at a water application rate of 600 l/ha (converted). After the test plants had been kept in the greenhouse under optimum growth conditions for about 3 weeks, the activity of the preparations was rated visually in comparison to untreated controls. For example, 100% activity=the plants have died, 0% activity=like control plants. Tables A1 to A14 below show the effects of selected compounds of the general formula (I) according to Tables I.1 to I.116 on various harmful plants and an application rate corresponding to 1280 g/ha or 320 g/ha, which were obtained by the experimental procedure mentioned above.

Ipomoea purpurea [2] = experiment: as above; conditions: rated visually after about 3 weeks
Description: as §1

Veronica persica = experiment: as above; conditions: about 3 weeks after treatment, 100% = plants have died, 0% = like control plants
Description: as §1

Alopecurus myosuroides [3] = experiment: as above; conditions: application rate 320 g/ha, about 3 weeks after treatment, 100% = plants have died, 0% = like control plants
Description: as §1

Stellaria media [4] = experiment: as above; conditions: rated visually after about 3 weeks
Description: as §1

Polygonum convolvulus [5] = experiment: as above; conditions: rated visually after about 3 weeks
Description: as §1

Abutilon theophrasti [6] = experiment: as above; conditions: about 3 weeks after treatment, 100% = plants have died, 0% = like control plants
Description: as §1

Echinochloa crus-galli [7] = experiment: as above; conditions: application rate 320 g/ha, about 3 weeks after treatment, 100% = plants have died, 0% = like control plants
Description: as §1

Matricaria inodora [8] = experiment: as above; conditions: rated visually after about 3 weeks
Description: as §1

Viola tricolor [9] = experiment: as above; conditions: rated visually after about 3 weeks
Description: as §1

Setaria viridis [10] = experiment: as above; conditions: about 3 weeks after treatment, 100% = plants have died, 0% = like control plants
Description: as §1

Amaranthus retroflexus [11] = experiment: Pre-emergence herbicidal action (Experimental Part 1, B); conditions: scored visually after about 3 weeks
Text: (§2) Seeds of monocotyledonous and dicotyledonous weed plants and crop plants were placed in plastic or organic planting pots and covered with soil. The compounds of the invention, formulated in the form of wettable powders (WP) or as emulsion concentrates (EC), were then applied onto the surface of the covering soil as aqueous suspension or emulsion with addition of 0.5% additive at a water application rate of 600 l/ha (converted). After the treatment, the pots were placed in a greenhouse and kept under good growth conditions for the test plants. After about 3 weeks, the effect of the preparations was scored visually in comparison with untreated controls as percentages. For example, 100% activity=the plants have died, 0% activity=like control plants. Tables B1 to B14 below show the effects of selected compounds of the general formula (I) according to Tables I.1 to I.116 on various harmful plants and an application rate corresponding to 1280 g/ha or 320 g/ha, which were obtained by the experimental procedure mentioned above.

Ipomoea purpurea [12] = experiment: as above; conditions: application rate 320 g/ha, scored visually after about 3 weeks
Text: as §2

Alopecurus myosuroides [13] = experiment: as above; conditions: scored visually after about 3 weeks
Text: as §2

Stellaria media [14] = experiment: as above; conditions: scored visually after about 3 weeks
Text: as §2

Polygonum convolvulus [15] = experiment: as above; conditions: scored visually after about 3 weeks
Text: as §2

Abutilon theophrasti [16] = experiment: as above; conditions: scored visually after about 3 weeks
Text: as §2

Echinochloa crus-galli [17] = experiment: as above; conditions: application rate 320 g/ha, scored visually after about 3 weeks
Text: as §2

Matricaria inodora [18] = experiment: as above; conditions: scored visually after about 3 weeks
Text: as §2

Avena fatua = experiment: as above; conditions: scored visually after about 3 weeks
Text: as §2

Viola tricolor [19] = experiment: as above; conditions: scored visually after about 3 weeks
Text: as §2

Lolium rigidum = experiment: as above; conditions: application rate 1280 g/ha, scored visually after about 3 weeks
Text: as §2

Setaria viridis [20] = experiment: as above; conditions: scored visually after about 3 weeks
Text: as §2

In the case of `CCOC(=O)OC1C(C)=CC(=O)N1c1cc(C(C)(C)C)on1` (centres unmarked) [I.11-162, 5-Ethoxycarbonyloxy-4-methyl-1-(5-tert-butyl-1,2-isoxazol-3-yl)-1,5-dihydro-2H-pyrrol-2-one], the “herbicidal activity on Amaranthus retroflexus (visual rating vs untreated controls)” value (Amaranthus retroflexus [1]; application rate 320 g/ha) is reported as 100%, the “Ipomoea purpurea, herbicidal activity” value (Ipomoea purpurea [2]; application rate 320 g/ha) is reported as 90% and the “herbicidal activity on Veronica persica (visual rating vs untreated controls)” value (Veronica persica; application rate 320 g/ha) is reported as 100%. The “herbicidal activity on Alopecurus myosuroides (visual rating vs untreated controls)” value (Alopecurus myosuroides [3]) was 100%, the “Stellaria media, herbicidal activity” value (Stellaria media [4]; application rate 320 g/ha) was 100% and the “Polygonum convolvulus, herbicidal activity” value (“Polygonum convolvulus” for short) (Polygonum convolvulus [5]; application rate 320 g/ha) was 100%. For the same compound, the “herbicidal activity on Abutilon theophrasti (visual rating vs untreated controls)” value (Abutilon theophrasti [6]; application rate 320 g/ha) was 100%, the “herbicidal activity on Echinochloa crus-galli (visual rating vs untreated controls)” value (Echinochloa crus-galli [7]) was 90% and the “Matricaria inodora, herbicidal activity” value (Matricaria inodora [8]; application rate 320 g/ha) was 100%. For the same compound, the “Viola tricolor, herbicidal activity” value (Viola tricolor [9]; application rate 320 g/ha) was 100%, the “herbicidal activity on Setaria viridis (visual rating vs untreated controls)” value (Setaria viridis [10]; application rate 320 g/ha) was 100% and the “Amaranthus retroflexus, herbicidal activity” value (Amaranthus retroflexus [11]; application rate 320 g/ha) was 100%. For the same compound, the “Ipomoea purpurea, herbicidal activity” value (Ipomoea purpurea [12]) was 90%, the “Alopecurus myosuroides, herbicidal activity” value (Alopecurus myosuroides [13]; application rate 320 g/ha) was 100% and the “Stellaria media, herbicidal activity” value (Stellaria media [14]; application rate 320 g/ha) was 100%. For the same compound, the “Polygonum convolvulus” value (Polygonum convolvulus [15]; application rate 320 g/ha) was 100%, the “Abutilon theophrasti, herbicidal activity” value (Abutilon theophrasti [16]; application rate 320 g/ha) was 100% and the “Echinochloa crus-galli, herbicidal activity” value (Echinochloa crus-galli [17]) was 100%. For the same compound, the “Matricaria inodora, herbicidal activity” value (Matricaria inodora [18]; application rate 320 g/ha) was 100%, the “Avena fatua, herbicidal activity” value (Avena fatua; application rate 320 g/ha) was 90% and the “Viola tricolor, herbicidal activity” value (Viola tricolor [19]; application rate 320 g/ha) was 100%. For the same compound, the “Lolium rigidum, herbicidal activity” value (Lolium rigidum) was 90% and the “Setaria viridis, herbicidal activity” value (Setaria viridis [20]; application rate 320 g/ha) was 100%.

`CCOC(=O)OC1C=C(C)C(=O)N1c1cc(C(F)(F)F)c(Cl)cn1` (centres unmarked) [I.12-451] was tested, and the “herbicidal activity on Amaranthus retroflexus (visual rating vs untreated controls)” value (Amaranthus retroflexus [1]; application rate 320 g/ha) was 100%, the “herbicidal activity on Amaranthus retroflexus (visual rating vs untreated controls)” value (Amaranthus retroflexus [1]; application rate 1280 g/ha) was 100% and the “Ipomoea purpurea, herbicidal activity” value (Ipomoea purpurea [2]; application rate 320 g/ha) was 100%. The “Ipomoea purpurea, herbicidal activity” value (Ipomoea purpurea [2]; application rate 1280 g/ha) was 100%, the “herbicidal activity on Veronica persica (visual rating vs untreated controls)” value (Veronica persica; application rate 1280 g/ha) was 100% and the “Stellaria media, herbicidal activity” value (Stellaria media [4]; application rate 320 g/ha) was 100%. For the same compound, the “Stellaria media, herbicidal activity” value (Stellaria media [4]; application rate 1280 g/ha) was 100%, the “Polygonum convolvulus” value (Polygonum convolvulus [5]; application rate 320 g/ha) was 100% and the “Polygonum convolvulus” value (Polygonum convolvulus [5]; application rate 1280 g/ha) was 100%. The “herbicidal activity on Abutilon theophrasti (visual rating vs untreated controls)” value (Abutilon theophrasti [6]; application rate 320 g/ha) was 100%, the “herbicidal activity on Abutilon theophrasti (visual rating vs untreated controls)” value (Abutilon theophrasti [6]; application rate 1280 g/ha) was 100% and the “Matricaria inodora, herbicidal activity” value (Matricaria inodora [8]; application rate 320 g/ha) was 90%. For the same compound, the “Matricaria inodora, herbicidal activity” value (Matricaria inodora [8]; application rate 1280 g/ha) was 100%, the “Viola tricolor, herbicidal activity” value (Viola tricolor [9]; application rate 320 g/ha) was 100% and the “Viola tricolor, herbicidal activity” value (Viola tricolor [9]; application rate 1280 g/ha) was 100%. The “herbicidal activity on Setaria viridis (visual rating vs untreated controls)” value (Setaria viridis [10]; application rate 320 g/ha) was 100%, the “herbicidal activity on Setaria viridis (visual rating vs untreated controls)” value (Setaria viridis [10]; application rate 1280 g/ha) was 100% and the “Amaranthus retroflexus, herbicidal activity” value (Amaranthus retroflexus [11]; application rate 320 g/ha) was 100%. The “Amaranthus retroflexus, herbicidal activity” value (Amaranthus retroflexus [11]; application rate 1280 g/ha) was 100%, the “Alopecurus myosuroides, herbicidal activity” value (Alopecurus myosuroides [13]; application rate 1280 g/ha) was 90% and the “Stellaria media, herbicidal activity” value (Stellaria media [14]; application rate 320 g/ha) was 100%. For the same compound, the “Stellaria media, herbicidal activity” value (Stellaria media [14]; application rate 1280 g/ha) was 100%, the “Polygonum convolvulus” value (Polygonum convolvulus [15]; application rate 1280 g/ha) was 100% and the “Abutilon theophrasti, herbicidal activity” value (Abutilon theophrasti [16]; application rate 1280 g/ha) was 100%. For the same compound, the “Matricaria inodora, herbicidal activity” value (Matricaria inodora [18]; application rate 1280 g/ha) was 90%, the “Avena fatua, herbicidal activity” value (Avena fatua; application rate 1280 g/ha) was 90% and the “Viola tricolor, herbicidal activity” value (Viola tricolor [19]; application rate 320 g/ha) was 100%. For the same compound, the “Viola tricolor, herbicidal activity” value (Viola tricolor [19]; application rate 1280 g/ha) was 100%, the “Setaria viridis, herbicidal activity” value (Setaria viridis [20]; application rate 320 g/ha) was 90% and the “Setaria viridis, herbicidal activity” value (Setaria viridis [20]; application rate 1280 g/ha) was 100%.
